Earlier results in US20170008834A1, “FUMARATE COMPOUNDS, PHARMACEUTICAL COMPOSITIONS THEREOF, AND METHODS OF USE” (priority 2015, published 2017).

- aqueous solubility: poor
Structure (SMILES): COC(=O)/C=C/C(=O)OC [DMF, dimethylfumarate]
